pEC50: −log10 of the molar value.
What was measured:
[1] = test system: recombinant human CFTR carrying the premature stop codon (PTC) mutation G542X; experiment: CFTR-PTC mutant translation readthrough, Nanoluc tagged CFTR luminescence (G542X cell line); format: cell-based; settings: in combination with G418, G542X cell line; for CFTR G542X ACTIVITY Fold 10 μM G-418: fold over 10 μM G-418; for pEC50: 16HBE cells
How it was run: (§1)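 Readthrough is the 48 h compound-induced luminescence increase scaled to that of maximal G418 (125-250 μM). Compounds run from 50 μM final in 2-fold steps, ±10 μM G418, on 16HBE lines carrying Nanoluc-tagged CFTR G542X (extracellular loop 4 tag) or R1162X (C-terminal tag), with 3 μM VX-809 present.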

[2] = test system: recombinant human CFTR carrying the premature stop codon (PTC) mutation R1162X; experiment: CFTR-PTC mutant translation readthrough, Nanoluc tagged CFTR luminescence (R1162X cell line); format: cell-based; settings: for CFTR R1162X ACTIVITY Fold 10 μM G-418: fold over 10 μM G-418, in combination with G418; for pEC50: in combination with G418, 16HBE cells, read-out: CFTR R1162X ACTIVITY EC50
How it was run: as §1

| SMILES | CFTR G542X ACTIVITY Fold 10 μM G-418 [1] | pEC50 [1] | CFTR R1162X ACTIVITY Fold 10 μM G-418 [2] | pEC50 [2] |
| --- | --- | --- | --- | --- |
| OCCn1cnc(Nc2ccc(OCc3c(Cl)cccc3Cl)cn2)n1 | A′ (A′ = ≥10X) | 5.00 to 6.00 | A′ (A′ = ≥10X) | 5.00 to 6.00 |
| O=C1CNC(=O)N1c1ccc(OCc2c(Cl)cccc2C(F)(F)F)cn1 | B′ (B′ = ≥5X to <10X) | 5.00 to 6.00 |  | < 5.00 |
| COc1cccc(Cl)c1COc1ccc(N2CC(CO)OC2=O)cc1 (stereo not drawn) | C′ (C′ = <5X) | < 5.00 | C′ (C′ = <5X) | < 5.00 |
| Cc1cccc(C(F)(F)F)c1COc1cnc(N2CC(CO)OCC2=O)nc1 (stereo not drawn) | A′ (A′ = ≥10X) | 5.00 to 6.00 | A′ (A′ = ≥10X) | 5.00 to 6.00 |
| O=C1OC(CO)CN1c1ncc(OC(F)(F)c2c(Cl)cccc2Cl)cn1 (stereo not drawn) |  | < 5.00 |  | < 5.00 |
| CC(O)C1CCN(c2ncc(OCc3c(Cl)cccc3Cl)cn2)C1 (stereo not drawn) [1-[1-[5-[(2,6-dichlorophenyl)methoxy]pyrimidin-2-yl]pyrrolidin-3-yl]ethanol] | A′ (A′ = ≥10X) | 5.00 to 6.00 | A′ (A′ = ≥10X) | 5.00 to 6.00 |
| Cc1cccc(C(F)(F)F)c1COc1cnc(N2C[C@H](O)C[C@H](O)C2)nc1 | A′ (A′ = ≥10X) | 5.00 to 6.00 | A′ (A′ = ≥10X) | 5.00 to 6.00 |
| NS(=O)(=O)N1CCN(c2ncc(OCc3c(Cl)cccc3Cl)cn2)CC1 [4-[5-[(2,6-dichlorophenyl)methoxy]pyrimidin-2-yl]piperazine-1-sulfonamide] | A′ (A′ = ≥10X) | 5.00 to 6.00 | A′ (A′ = ≥10X) | < 5.00 |
| Cc1cccc(C(F)(F)F)c1COc1cnc(-n2cnc(CO)c2)nc1 | A′ (A′ = ≥10X) | > 6.00 | A′ (A′ = ≥10X) | > 6.00 |
| OCc1nnc(-c2ccc(OCc3c(Cl)cccc3C(F)(F)F)cn2)o1 | C′ (C′ = <5X) | > 6.00 | C′ (C′ = <5X) | > 6.00 |
| O=C1OC(CO)CN1c1ccc(OCc2c(Cl)cc(F)cc2Cl)cc1 (stereo not drawn) | B′ (B′ = ≥5X to <10X) | < 5.00 | B′ (B′ = ≥5X to <10X) | < 5.00 |
| Cc1cccc(C(F)(F)F)c1COc1cnc(N2CCS(=O)(=O)C(CO)C2)nc1 (stereo not drawn) [[4-[5-[[2-methyl-6-(trifluoromethyl)phenyl]methoxy]pyrimidin] | A′ (A′ = ≥10X) | 5.00 to 6.00 | A′ (A′ = ≥10X) | 5.00 to 6.00 |
| O=C1OC(CO)CN1c1ccc(OCc2c(Cl)cccc2C2CC2)cc1 (stereo not drawn) | A′ (A′ = ≥10X) | 5.00 to 6.00 | A′ (A′ = ≥10X) | 5.00 to 6.00 |
| OCc1cn(-c2ncc(OCc3c(Cl)cccc3Cl)cn2)cn1 [[1-[5-[(2,6-dichlorophenyl)methoxy]pyrimidin-2-yl]imidazol-4-yl]methanol] | A′ (A′ = ≥10X) | > 6.00 | A′ (A′ = ≥10X) | 5.00 to 6.00 |
| Cc1cccc(C(F)(F)F)c1COc1cnc(N2CCC(CO)(CO)CC2)nc1 | A′ (A′ = ≥10X) | > 6.00 | A′ (A′ = ≥10X) | > 6.00 |
| O=C1NC2(CCCC2)C(=O)N1c1ncc(OCc2c(Cl)cccc2Cl)cn1 | A′ (A′ = ≥10X) | 5.00 to 6.00 | A′ (A′ = ≥10X) | < 5.00 |
| CN(C)C(=O)N1CCN(c2ncc(OCc3c(Cl)cccc3Cl)cn2)CC1 | B′ (B′ = ≥5X to <10X) | > 6.00 | A′ (A′ = ≥10X) | > 6.00 |
| O=C(O)C1CCN(c2ncc(OCc3c(Cl)cccc3C(F)(F)F)cn2)C1 (stereo not drawn) | A′ (A′ = ≥10X) | 5.00 to 6.00 | B′ (B′ = ≥5X to <10X) | 5.00 to 6.00 |
| Cc1cccc(C(F)(F)F)c1COc1ccc(N2C(=O)CN(C)C2=O)cc1 | A′ (A′ = ≥10X) | > 6.00 | A′ (A′ = ≥10X) | 5.00 to 6.00 |
| O=C1OC(CO)CN1c1ccc(CCc2c(Cl)cccc2Cl)cc1 (stereo not drawn) [3-[4-[2-(2,6-dichlorophenyl)ethyl]phenyl]-5-(hydroxymethyl)oxazolidin-2-one] | C′ (C′ = <5X) | 5.00 to 6.00 | B′ (B′ = ≥5X to <10X) | < 5.00 |

| SMILES | CFTR G542X ACTIVITY Fold 10 μM G-418 [1] | pEC50 [1] | CFTR R1162X ACTIVITY Fold 10 μM G-418 [2] | pEC50 [2] |
| --- | --- | --- | --- | --- |
| OCC1CCCN(c2ncc(OCc3c(Cl)cccc3Cl)cn2)C1 (stereo not drawn) [[1-[5-[(2,6-dichlorophenyl)methoxy]pyrimidin-2-yl]-3-piperidyl]methanol] | A′ (A′ = ≥10X) | 5.00 to 6.00 | A′ (A′ = ≥10X) | 5.00 to 6.00 |
| O=C(O)C1CCN(c2ncc(OCc3c(Cl)cccc3C(F)(F)F)cn2)CC1 [1-[5-[[2-chloro-6-(trifluoromethyl)phenyl]methoxy]pyrimidin-] | A; | 5.00 to 6.00 | A′ (A′ = ≥10X) | 5.00 to 6.00 |
| C=C1NC(=O)N(c2ccc(OCc3c(Cl)cccc3Cl)cn2)C1=O | B′ (B′ = ≥5X to <10X) | 5.00 to 6.00 | B′ (B′ = ≥5X to <10X) | 5.00 to 6.00 |
| OCc1cc(-c2ncc(OCc3c(Cl)cccc3C(F)(F)F)cn2)no1 | A′ (A′ = ≥10X) | > 6.00 | A′ (A′ = ≥10X) | 5.00 to 6.00 |
| O=C1OCCN1c1ccc(OCc2c(Cl)cccc2Cl)cc1 [3-[4-[(2,6-dichlorophenyl)methoxy]phenyl]oxazolidin-2-one] | A′ (A′ = ≥10X) | 5.00 to 6.00 | B′ (B′ = ≥5X to <10X) | 5.00 to 6.00 |
| Cn1cnc(-c2ccc(OCc3c(Cl)cccc3Cl)cc2)c1 [4-[4-[(2,6-dichlorophenyl)methoxy]phenyl]-1-methyl-imidazole] | A′ (A′ = ≥10X) | 5.00 to 6.00 | A′ (A′ = ≥10X) | 5.00 to 6.00 |
| CS(=O)(=O)NCC1CN(c2ncc(OCc3c(Cl)cccc3Cl)cn2)CCO1 (stereo not drawn) | A′ (A′ = ≥10X) | 5.00 to 6.00 | B′ (B′ = ≥5X to <10X) | 5.00 to 6.00 |
| O=C(CO)N1CCN(c2ncc(OCc3c(Cl)cccc3Cl)cn2)CC1 | A′ (A′ = ≥10X) | 5.00 to 6.00 | A′ (A′ = ≥10X) | 5.00 to 6.00 |
| CCCCN1CC(=O)N(c2ccc(OCc3c(C)cccc3C(F)(F)F)cc2)C1=O | B′ (B′ = ≥5X to <10X) | 5.00 to 6.00 | B′ (B′ = ≥5X to <10X) | 5.00 to 6.00 |
| Cc1cccc(C(F)(F)F)c1COc1cnc(N2CCN(C(N)=O)[C@@H](C)C2)nc1 | A′ (A′ = ≥10X) | > 6.00 | A′ (A′ = ≥10X) | > 6.00 |
| O=C1CN(c2ccc(OCc3c(Cl)cccc3C(F)(F)F)cn2)C(=O)N1 | A′ (A′ = ≥10X) | > 6.00 | A′ (A′ = ≥10X) | > 6.00 |
| NC(=O)[C@H]1CCN(c2ncc(OCc3c(Cl)cccc3C(F)(F)F)cn2)C1 | A′ (A′ = ≥10X) | 5.00 to 6.00 | A′ (A′ = ≥10X) | 5.00 to 6.00 |
| O=C1N[C@H](CO)C(=O)N1c1ccc(OCc2c(Cl)cccc2Cl)cn1 | A′ (A′ = ≥10X) | < 5.00 | B′ (B′ = ≥5X to <10X) | < 5.00 |
| OCc1cnn(-c2ccc(OCc3c(Cl)cccc3Cl)cc2)c1 [[1-[4-[(2,6-dichlorophenyl)methoxy]phenyl]pyrazol-4-yl]methanol] | A′ (A′ = ≥10X) | 5.00 to 6.00 | A′ (A′ = ≥10X) | 5.00 to 6.00 |
| OCc1nc(-c2ncc(OCc3c(Cl)cccc3Cl)cn2)co1 [[4-[5-[(2,6-dichlorophenyl)methoxy]pyrimidin-2-yl]oxazol-2-yl]methanol] | A′ (A′ = ≥10X) | 5.00 to 6.00 | A′ (A′ = ≥10X) | 5.00 to 6.00 |
| CC(=O)N1CCN(c2ncc(OCc3c(C)cccc3C(F)(F)F)cn2)CC1CN (racemic) | C′ (C′ = <5X) | 5.00 to 6.00 | C′ (C′ = <5X) | 5.00 to 6.00 |
| OCC1CN(c2ccc(OCc3c(Cl)cccc3Cl)cc2)CCO1 (stereo not drawn) [[4-[4-[(2,6-dichlorophenyl)methoxy]phenyl]morpholin-2-yl]methanol] | A′ (A′ = ≥10X) | 5.00 to 6.00 | A′ (A′ = ≥10X) | 5.00 to 6.00 |
| Cc1cccc(C(F)(F)F)c1COc1ccc(-n2cnc(C(N)=O)n2)cc1 | B′ (B′ = ≥5X to <10X) | > 6.00 | A′ (A′ = ≥10X) | > 6.00 |
| Cc1cccc(C(F)(F)F)c1COc1cnc(-n2cnnc2)nc1 [5-[[2-methyl-6-(trifluoromethyl)phenyl]methoxy]-2-(1,2,4-triazol-4-yl)pyrimidine] | A′ (A′ = ≥10X) | 5.00 to 6.00 | A′ (A′ = ≥10X) | 5.00 to 6.00 |

— patent US20250228865A1, “COMPOUNDS FOR ENHANCING READ THROUGH OF GENES CONTAINING PREMATURE TERMINATION CODONS AND METHODS FOR MAKING AND USING THE SAME” (Sanofi US Services Inc., priority 2022, published 2025)
